In ChEMBL document CHEMBL1136603, “Synthesis and biological evaluation of novel indoloazepine derivatives as non-peptide vasopressin V2 receptor antagonists” (Bioorg Med Chem Lett, 2003) one finds IC50 and inhibition data, which are given here for 17 compounds.

T1 sequence (P30518 whole entry): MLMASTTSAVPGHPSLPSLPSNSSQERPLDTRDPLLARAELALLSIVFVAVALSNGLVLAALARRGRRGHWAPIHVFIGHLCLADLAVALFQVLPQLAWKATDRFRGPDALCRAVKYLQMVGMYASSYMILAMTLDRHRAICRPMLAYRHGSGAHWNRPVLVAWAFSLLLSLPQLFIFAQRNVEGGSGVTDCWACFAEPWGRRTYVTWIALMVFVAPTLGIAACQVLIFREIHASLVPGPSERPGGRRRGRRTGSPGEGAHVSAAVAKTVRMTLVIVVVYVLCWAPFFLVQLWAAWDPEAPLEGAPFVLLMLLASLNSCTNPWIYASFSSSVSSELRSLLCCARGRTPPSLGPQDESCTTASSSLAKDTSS

The target of the first assay is Vasopressin V1a receptor (Homo sapiens, UniProt P37288). Description: Binding affinity towards VIa receptor.
Sequence of Vasopressin V1a receptor (P37288 whole entry): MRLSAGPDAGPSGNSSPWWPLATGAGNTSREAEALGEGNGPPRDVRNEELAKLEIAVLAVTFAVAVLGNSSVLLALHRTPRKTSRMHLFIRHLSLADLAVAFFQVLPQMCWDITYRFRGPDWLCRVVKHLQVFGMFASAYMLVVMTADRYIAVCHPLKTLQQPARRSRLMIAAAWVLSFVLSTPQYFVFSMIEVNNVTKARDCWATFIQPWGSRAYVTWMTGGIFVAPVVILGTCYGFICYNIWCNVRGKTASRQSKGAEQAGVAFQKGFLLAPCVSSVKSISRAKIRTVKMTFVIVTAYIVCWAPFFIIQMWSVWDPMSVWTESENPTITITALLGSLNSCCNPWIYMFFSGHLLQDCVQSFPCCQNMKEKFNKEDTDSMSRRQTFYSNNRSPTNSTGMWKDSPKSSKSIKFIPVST
Consider `O=C(Nc1ccc(C(=O)N2CCCc3c[nH]c4cccc2c34)cc1)c1ccccc1-c1ccccc1`, for which the IC50 – broadly, the point on the concentration scale where inhibition reaches its midpoint – worked out at 3100 nM.

For the next assay, the target named is Vasopressin V2 receptor (Rattus norvegicus, UniProt Q00788). Description: Binding affinity towards V2 receptor.
Sequence of Vasopressin V2 receptor (Rattus norvegicus, UniProt Q00788) (Q00788 whole entry): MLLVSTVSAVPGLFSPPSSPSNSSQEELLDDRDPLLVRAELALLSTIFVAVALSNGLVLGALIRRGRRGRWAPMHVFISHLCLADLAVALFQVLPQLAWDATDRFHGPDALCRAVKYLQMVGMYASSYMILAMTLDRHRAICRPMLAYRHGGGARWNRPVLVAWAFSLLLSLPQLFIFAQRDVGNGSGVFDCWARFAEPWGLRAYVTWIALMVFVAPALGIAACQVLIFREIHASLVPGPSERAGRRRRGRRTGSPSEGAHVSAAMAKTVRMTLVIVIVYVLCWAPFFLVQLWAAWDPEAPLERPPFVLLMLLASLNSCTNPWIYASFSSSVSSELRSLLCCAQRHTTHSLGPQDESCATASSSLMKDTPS
`O=C(Nc1ccc(C(=O)N2CCCc3c[nH]c4cccc2c34)cc1)c1ccccc1-c1ccccc1` yielded an IC50 of 1 nM.

A further assay has as its target T1, Vasopressin V2 receptor (Homo sapiens, UniProt P30518). Briefly: Inhibitory activity of the human V2 receptor was assessed by the accumulation of cAMP in transfected HEK293 cells. The assay is classed as functional, cell-based.
With `O=C(Nc1ccc(C(=O)N2CCCc3c[nH]c4cccc2c34)c(Cl)c1)c1ccccc1-c1ccccc1`, the midpoint of inhibition, the IC50, lay at 330 nM.

In turn, `Cc1ccc(F)cc1C(=O)Nc1ccc(C(=O)N2Cc3cccn3Cc3ccccc32)c(Cl)c1` [LIXIVAPTAN] yielded an IC50 of 91 nM.

`Cc1ccc(-c2ccccc2C(=O)Nc2ccc(C(=O)N3CCCc4c[nH]c5cccc3c45)cc2)cc1` returned an IC50 of 70 nM.

Take `O=C(Nc1ccc(C(=O)N2CCCc3c[nH]c4cccc2c34)cc1)c1ccccc1-c1ccccc1`: the IC50 worked out at 70 nM.

The target of the next assay is T1, Vasopressin V2 receptor. Description: Displacement of [3H]AVP from human V2 receptors expressed in HEK293 cells. The class given is cell-based. For orientation: Loss of bound radioactivity is the signal in a displacement assay; it reports binding, not function.
For `O=C(Nc1ccc(C(=O)N2CCCc3c[nH]c4cccc2c34)cc1Cl)c1ccccc1-c1ccccc1`, the half-maximal inhibitory concentration (IC50) worked out at 15 nM.

Compound `O=C(Nc1ccc(C(=O)N2CCCc3c(S(=O)(=O)O)[nH]c4cccc2c34)cc1Cl)c1ccccc1-c1ccccc1` yielded an IC50 of 12 nM.

Compound `O=C(Nc1ccc(C(=O)N2CCCC3C(=O)Nc4cccc2c43)cc1)c1ccccc1-c1ccccc1` (configuration not stated) returned an IC50 of 8 nM.

`CC(=O)n1cc2c3c(cccc31)N(C(=O)c1ccc(NC(=O)c3ccccc3-c3ccc(C)cc3)cc1)CCC2` had an IC50 of 170 nM.

`Cc1ccc(F)cc1C(=O)Nc1ccc(C(=O)N2CCCc3c[nH]c4cccc2c34)cc1` displayed an IC50 of 190 nM.

With `O=C(Nc1ccc(C(=O)N2CCCc3c[nH]c4cccc2c34)c(Cl)c1)c1ccccc1-c1ccccc1`, the IC50 worked out at 50 nM.

Regarding `O=C(Nc1ccc(C(=O)N2CCCc3c(S(=O)(=O)O)[nH]c4cccc2c34)cc1)c1ccccc1-c1ccccc1`, the IC50 came to 13 nM.

`Cc1ccc(-c2ccccc2C(=O)Nc2ccc(C(=O)N3CCCc4cn(C)c5cccc3c45)cc2)cc1`: the IC50 came to 210 nM.

Compound `O=C(Nc1ccc(C(=O)N2CCCc3c(Cl)[nH]c4cccc2c34)cc1)c1ccccc1-c1ccccc1` returned an IC50 of 44 nM.

With `Cc1ccc(-c2ccccc2C(=O)Nc2ccc(C(=O)N3CCCc4c[nH]c5cccc3c45)cc2)cc1`, the IC50 was 11 nM.

Turning to `CCOC(=O)Cn1cc2c3c(cccc31)N(C(=O)c1ccc(NC(=O)c3ccccc3-c3ccc(C)cc3)cc1)CCC2`, the IC50 was 550 nM.

In the case of `Cc1c(F)cccc1C(=O)Nc1ccc(C(=O)N2CCCc3c[nH]c4cccc2c34)cc1`, the IC50 amounted to 180 nM.

As for `O=C(Nc1ccc(C(=O)N2CCCc3c[nH]c4cccc2c34)cc1)c1ccccc1-c1ccccc1`, the IC50 was 20 nM.

The target of another assay is T1, Vasopressin V2 receptor. Description: Compound was assessed for their ability to displace [3H]AVP from human V2 receptors transfected into HEK293 cells at 0.1 uM concentration. The class given is cell-based.
On to `Cc1ccccc1C(=O)Nc1ccc(C(=O)N2CCCc3c[nH]c4cccc2c34)cc1`, for which the inhibition (usually how much of the control response was suppressed) is < 30%.

Turning to `CCCn1cc2c3c(cccc31)N(C(=O)c1ccc(NC(=O)c3ccccc3-c3ccc(C)cc3)cc1)CCC2`, the inhibition is < 30%.

Consider `Cc1ccc(-c2ccccc2C(=O)Nc2ccc(C(=O)N3CCCc4cn(Cc5ccccc5)c5cccc3c45)cc2)cc1`, for which the inhibition is < 30%.
